According to patent US20110059123A1, “Inhibition of the Survival of Colorectal Cancer by Cyclohexenone Compounds from Antrodia Camphorata” (GOLDEN BIOTECHNOLOGY CORPORATION, priority 2009, published 2011):

System: colorectal cancer cell line WiDr
Assay: In vitro survival assay (MTT) for anti-colorectal cancer effects
Assay type: cell-based
Conditions: WiDr human colon adenocarcinoma cells, 48 hours treatment, survival rate
Description: Inhibiting effects of colorectal cancer cells by cyclohexenone compounds of Antrodia camphorata from example 1 were assessed according to the anticancer-drug screening model of National Cancer Institute (NCI). The compound 4-hydroxy-2,3-dimethoxy-6-methyl-5-(3,7,11-trimethyl-dodeca-2,6,10-trienyl)-cyclohex-2-enone from example 1 was added into the culture media of colorectal cancer cell line WiDr to determine the survival rates. Survival of cell was analyzed using MTT assay. WiDr cell line was a human colon adenocarcinoma cell line.
MTT assay is commonly used to analyze cell proliferation, survival rate of viable cells and cytotoxicity. MTT (3[4,5-dimethylthiazol-2-yl]-2,5-diphenyltetrazolium bromide) is a yellow dye which can be converted to water-insoluble purple formazan on the reductive cleavage of its tetrazolium ring by the succinate tetrazolium reductase in mitochondria of cells. The amount of formazan produced is used to detect the number of viable cells and calculate the survival rates.
The WiDr cells were cultivated in RPMI 1640 medium supplemented with 10% fetal bovine serum, 100 IU/ml of Penicillin and […] of Streptomycin at 37° C., 5% CO2 for 24 hours. Proliferated cells were washed once with PBS, treated with 1× trypsin-EDTA, and centrifuged at 1200 rpm for 5 min. […] The absorbances were measured at 570 nm with an ELISA Reader to determine the survival rates.

COC1=C(OC)C(O)C(C/C=C(\C)CC/C=C(\C)CCC=C(C)C)C(C)C1=O (stereo not shown) [formula 2, 4-hydroxy-2,3-dimethoxy-6-methyl-5-(3,7,11-trimethyl-dodeca-2,6,10-trienyl)-cyclohex-2-enone]
IC50: 0.92 µg/mL
